# Reference: patent publication US20220287995A1, “COMPOSITIONS AND METHODS FOR INHIBITING BACTERIAL VIRULENCE AND FLIM-BASED DEVICE AND METHOD FOR ANTIBIOTIC SUSCEPTIBILITY TESTING” (THE REGENTS OF THE UNIVERSITY OF CALIFORNIA, priority 2019, published 2022)
# “Also recorded” adds a separate entry of the source.
# Test system: P. aeruginosa
# Assay: Colorimetric enzyme-cycling assay of NADH and NAD+ concentrations
# Assay type: cell-based, Pseudomonas aeruginosa
# Conditions: for NADH/NAD+ ratio / total concentrations of NADH and NAD+ / change in NADH/NAD+ ratio / change in total NAD(H) production: surface-attached; for NADH/NAD+ ratio / total concentrations of NADH and NAD+: mid-exponential phase; for change in NADH/NAD+ ratio / change in total NAD(H) production: rich (PS:DB) medium, carbon source 0.2% added at 3 hours, harvested after 1 additional hour
# Method: The concentrations of reduced and oxidized nicotinamide adenine dinucleotide (NADH, NAD^+) were measured using a colorimetric enzyme-cycling assay as described previously (45). P. aeruginosa strains were cultured overnight in PS:DB, diluted 1:100 into 60×15 mm plastic petri dishes (Corning, Corning, N.Y.) containing the same medium, and grown for 4 to 6 hours. Alternatively, strains were cultured overnight in minimal medium, diluted 1:100 into plastic petri dishes containing modified minimal medium with single carbon sources, and grown to an OD600 of 0.2. Cultures were harvested in a glove box chamber (Bel-Art, Wayne, N.J.) that had been vacuumed to remove air and flushed with nitrogen constantly throughout the experiment to prevent oxidation of NADH. Subsequent steps were performed and solutions were prepared in the glove box unless otherwise indicated. Solutions containing 0.05 to 1 μM of NADH (Sigma) or NAD^+ (Sigma) were included as calibration controls.
# Planktonic cells were isolated from petri dishes, pelleted by centrifugation at 16,000×g for 1 min, the residual supernatant was discarded and the pellet was immediately resuspended in 0.2 M NaOH or HCl to extract NADH or NAD^+, respectively, as described previously (45, 46). Surface-attached cells were harvested by aspirating planktonic cells from petri dishes, washing with DB buffer or modified minimal medium with no carbon source for strains cultured in PS:DB or modified minimal medium A containing single carbon sources, respectively, adding 0.2 M NaOH or HCl, and scraping surfaces with a cell scraper (Sarstedt, Nümbrecht, Germany). As a control, the Δphz12 strain was cultured overnight in modified MOPS synthetic medium (46), diluted 1:100 in the same medium in culture tubes for 1 to 4 hours, pelleted by centrifugation, resuspended in 0.2 M NaOH or HCl, as described previously (46). The resuspensions in NaOH or HCl were neutralized using equal volume of 0.1 M HCl or NaOH, respectively, and portions were assayed for protein content, NADH, and NAD^+. Resuspensions were assayed for protein content using a BCA assay kit (ThermoFisher Scientific, Waltham, Mass.) using a 50:1 mixture of solutions A and B from the kit. Solutions were incubated at 37° C. for 30 min and measured for absorbance at 562 nm. Resuspensions that were not used for the BCA assay were normalized by protein content by diluting in Millipore-filtered water.
# NADH and NAD^+ concentrations were determined by following the protocol described previously (45). Briefly, normalized resuspensions were centrifuged at 16,000×g for 10 minutes at 4° C. to remove cell debris and mixed with a reaction mixture containing 40 mM EDTA, 1 M bicine (Sigma), 4.2 mM 3-(4,5-dimethylthiazol-2-yl)-2,5-diphenyltetrazolium bromide (Sigma), 16.6 mM phenazine ethosulfate (Sigma), 1 mg/mL alcohol dehydrogenase (Sigma), and ethanol, and the absorbance at 570 nm of the solution was measured in a 96-well plate (Corning Corning, N.Y.) at 30° C. every 30 seconds for 30 minutes using a BioTek Synergy HTX reader (BioTek, Winooski, Vt.). The reaction mixture and the normalized resuspensions were aliquoted and mixed inside the glove box. The centrifugation and absorbance measurements were performed outside of the glove box. The absorbance per unit time was determined by fitting data on the initial velocity of enzyme activity, acquired between 2 to 10 minutes of the absorbance measurements. The absorbances per unit time for the NADH and NAD^+ calibration controls were linearly fit for the full range of calibration concentrations to establish a linear equation that relates the absorbance per unit time and NAD(H) concentration. The NAD(H) concentrations of the planktonic and surface-attached cell resuspensions were determined by inputting the respective absorbance per unit time fits of the samples into these equations. […]
# [1] = planktonic cells, modified minimal medium, single carbon source at 0.2%
# [2] = modified minimal medium, single carbon source at 0.2%
SMILES,NAD(H) concentration relative to glycerol [1],NADH/NAD+ ratio relative to glycerol [1],NADH/NAD+ ratio [2],total concentrations of NADH and NAD+ [2],change in NADH/NAD+ ratio,change in total NAD(H) production
O=C(O)CC(O)(CC(=O)O)C(=O)O [citrate],slightly lower,slightly greater,increasing ratios,intermediate,greatest increases,greatest decreases; also recorded: decreased
OCC(O)CO [glycerol],,,increasing ratios,intermediate,smallest changes,relatively small impacts
